Data set [1] addresses Histone acetyltransferase KAT2A (Homo sapiens) (UniProt Q92830). The data set is described as follows: Inhibition of recombinant GCN5 (unknown origin).
Data set [2] has as its target Histone acetyltransferase KAT2B (Homo sapiens, UniProt Q92831). The data set is described as follows: Inhibition of recombinant PCAF (unknown origin).
The target of data set [3] is T1, Histone acetyltransferase p300 (Homo sapiens, UniProt Q09472). The experiment in a line: Inhibition of P300 in human U937 cells assessed as reduction in H3K9 histone acetylation at 100 uM by immunoblotting analysis. The note with it: U-937, TDE = time-dependent effect. In kind it is cell-based. Background: Immunoblotting shows a protein as a band on a membrane.
T1 sequence (Q09472 whole entry): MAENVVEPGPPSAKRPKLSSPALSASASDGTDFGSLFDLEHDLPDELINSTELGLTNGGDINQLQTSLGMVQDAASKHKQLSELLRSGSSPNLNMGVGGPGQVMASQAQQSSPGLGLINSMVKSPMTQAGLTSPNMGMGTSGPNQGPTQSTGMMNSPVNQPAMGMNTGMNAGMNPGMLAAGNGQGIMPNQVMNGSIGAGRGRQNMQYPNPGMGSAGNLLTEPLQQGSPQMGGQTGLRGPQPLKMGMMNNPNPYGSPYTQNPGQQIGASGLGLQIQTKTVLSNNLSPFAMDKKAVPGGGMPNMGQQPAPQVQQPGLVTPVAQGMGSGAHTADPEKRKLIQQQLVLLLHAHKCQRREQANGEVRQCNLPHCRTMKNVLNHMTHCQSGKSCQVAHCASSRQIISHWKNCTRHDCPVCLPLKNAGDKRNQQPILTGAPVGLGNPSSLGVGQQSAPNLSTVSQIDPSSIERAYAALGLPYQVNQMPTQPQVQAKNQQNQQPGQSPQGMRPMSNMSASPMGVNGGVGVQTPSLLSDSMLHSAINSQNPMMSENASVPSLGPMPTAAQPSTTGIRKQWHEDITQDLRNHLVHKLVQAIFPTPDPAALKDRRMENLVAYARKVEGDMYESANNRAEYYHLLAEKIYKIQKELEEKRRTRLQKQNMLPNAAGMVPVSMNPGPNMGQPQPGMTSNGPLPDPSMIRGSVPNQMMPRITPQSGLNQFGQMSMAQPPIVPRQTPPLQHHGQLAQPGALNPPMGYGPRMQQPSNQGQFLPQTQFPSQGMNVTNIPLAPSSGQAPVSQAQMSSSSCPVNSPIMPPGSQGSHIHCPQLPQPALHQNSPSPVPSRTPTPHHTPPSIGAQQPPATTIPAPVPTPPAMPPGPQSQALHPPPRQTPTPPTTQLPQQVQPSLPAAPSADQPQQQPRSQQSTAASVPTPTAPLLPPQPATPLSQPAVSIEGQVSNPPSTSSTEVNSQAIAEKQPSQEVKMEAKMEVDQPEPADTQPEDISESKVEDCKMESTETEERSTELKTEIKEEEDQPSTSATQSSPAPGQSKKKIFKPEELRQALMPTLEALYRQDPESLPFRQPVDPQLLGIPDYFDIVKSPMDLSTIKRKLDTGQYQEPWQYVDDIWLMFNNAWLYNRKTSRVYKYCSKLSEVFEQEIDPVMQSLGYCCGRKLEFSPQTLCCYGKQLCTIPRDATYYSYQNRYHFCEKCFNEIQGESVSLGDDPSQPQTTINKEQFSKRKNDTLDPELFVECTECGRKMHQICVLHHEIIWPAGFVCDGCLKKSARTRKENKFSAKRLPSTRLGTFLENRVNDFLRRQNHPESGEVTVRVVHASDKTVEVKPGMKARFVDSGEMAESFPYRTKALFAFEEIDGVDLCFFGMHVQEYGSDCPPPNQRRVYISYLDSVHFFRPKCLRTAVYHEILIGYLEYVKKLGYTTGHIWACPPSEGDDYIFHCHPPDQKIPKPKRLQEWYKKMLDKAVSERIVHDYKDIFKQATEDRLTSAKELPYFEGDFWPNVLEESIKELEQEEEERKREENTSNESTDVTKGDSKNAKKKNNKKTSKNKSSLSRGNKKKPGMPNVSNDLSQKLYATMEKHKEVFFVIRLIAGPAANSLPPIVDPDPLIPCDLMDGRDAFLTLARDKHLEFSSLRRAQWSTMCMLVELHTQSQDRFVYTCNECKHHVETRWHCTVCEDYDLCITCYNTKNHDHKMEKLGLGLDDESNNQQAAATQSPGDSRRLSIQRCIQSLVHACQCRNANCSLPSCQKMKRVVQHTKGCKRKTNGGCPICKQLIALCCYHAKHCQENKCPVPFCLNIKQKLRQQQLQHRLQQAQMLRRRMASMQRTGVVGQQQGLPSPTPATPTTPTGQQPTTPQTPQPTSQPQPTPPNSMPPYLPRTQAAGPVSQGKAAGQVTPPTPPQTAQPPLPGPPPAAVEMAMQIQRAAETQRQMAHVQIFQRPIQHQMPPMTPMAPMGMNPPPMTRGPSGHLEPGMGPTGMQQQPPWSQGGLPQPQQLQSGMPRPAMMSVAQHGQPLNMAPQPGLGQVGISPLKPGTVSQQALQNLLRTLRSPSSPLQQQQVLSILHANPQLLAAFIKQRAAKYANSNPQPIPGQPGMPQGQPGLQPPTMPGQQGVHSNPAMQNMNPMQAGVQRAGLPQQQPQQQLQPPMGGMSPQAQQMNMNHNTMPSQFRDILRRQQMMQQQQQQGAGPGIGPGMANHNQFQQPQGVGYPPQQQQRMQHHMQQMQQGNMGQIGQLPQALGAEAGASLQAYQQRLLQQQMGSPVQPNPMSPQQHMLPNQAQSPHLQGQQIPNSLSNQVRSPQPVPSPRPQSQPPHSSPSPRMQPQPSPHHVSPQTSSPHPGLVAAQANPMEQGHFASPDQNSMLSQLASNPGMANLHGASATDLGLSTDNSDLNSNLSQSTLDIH
The nature of data set [4]: Cell cycle arrest in human U937 cells assessed as accumulation at G0/G1 phase at 100 uM after 72 hrs by propidium iodide staining-based FACS analysis. The class given is functional. The note with it: U-937. (A flow cytometer gives signals particle by particle.)
Data set [5] addresses T1, Histone acetyltransferase p300. The data set is described as follows: Inhibition of P300 in human U937 cells assessed as reduction in H4K5 histone acetylation at 100 uM by immunoblotting analysis. The class given is cell-based. Conditions: U-937, TDE = time-dependent effect.
Data set [6] in a line: Induction of beta-mercaptoethanol adduct formation in PBS after 30 mins to 24 hrs by HPLC analysis.
Data set [7] addresses T1, Histone acetyltransferase p300. The experiment in a line: Reversible inhibition of P300 (unknown origin).
The target is the same in data set [8]. The data set is described as follows: Noncompetitive inhibition of P300 (unknown origin) using biotinylated H3 as substrate after 15 mins by double reciprocal plot analysis.
Data set [9] concerns the target CREB-binding protein (Homo sapiens, UniProt Q92793). The data set is described as follows: Inhibition of recombinant CBP (unknown origin).
In data set [10] the target is T1, Histone acetyltransferase p300. The data set is described as follows: Noncompetitive inhibition of P300 (unknown origin) using acetyl CoA as substrate after 15 mins by double reciprocal plot analysis.
The nature of data set [11]: Cell cycle arrest in human U937 cells assessed as increase in hypodiploid nuclei level at 100 uM after 72 hrs by Nicoletti method. The class given is functional, cell-based. The note with it: U-937.
A short description of data set [12]: Stability of the compound in PBS at 25 degC after 2 mins to 24 hrs by HPLC analysis. In kind it is physicochemical. Conditions: buffer.
Data set [13] can be described thus: Cytotoxicity against human U937 cells assessed as cell viability at 10 to 100 uM after 24 hrs by MTT assay. The class given is cell-based. Conditions: u-937, 24 h. On the technique in general: Formazan colour is commonly taken as a measure of viable cells.
Data set [14] has as its target T1, Histone acetyltransferase p300. The experiment in a line: Inhibition of recombinant P300 (unknown origin).
The nature of data set [15]: Apparent permeability of the compound at RT after 24 hrs by PAMPA. In kind it is physicochemical.

Calls of active or inactive are those of the source. The calls are words filed in the database; no cut-off is given here.

Chain of Histone acetyltransferase KAT2B (Q92831 whole entry, looked up): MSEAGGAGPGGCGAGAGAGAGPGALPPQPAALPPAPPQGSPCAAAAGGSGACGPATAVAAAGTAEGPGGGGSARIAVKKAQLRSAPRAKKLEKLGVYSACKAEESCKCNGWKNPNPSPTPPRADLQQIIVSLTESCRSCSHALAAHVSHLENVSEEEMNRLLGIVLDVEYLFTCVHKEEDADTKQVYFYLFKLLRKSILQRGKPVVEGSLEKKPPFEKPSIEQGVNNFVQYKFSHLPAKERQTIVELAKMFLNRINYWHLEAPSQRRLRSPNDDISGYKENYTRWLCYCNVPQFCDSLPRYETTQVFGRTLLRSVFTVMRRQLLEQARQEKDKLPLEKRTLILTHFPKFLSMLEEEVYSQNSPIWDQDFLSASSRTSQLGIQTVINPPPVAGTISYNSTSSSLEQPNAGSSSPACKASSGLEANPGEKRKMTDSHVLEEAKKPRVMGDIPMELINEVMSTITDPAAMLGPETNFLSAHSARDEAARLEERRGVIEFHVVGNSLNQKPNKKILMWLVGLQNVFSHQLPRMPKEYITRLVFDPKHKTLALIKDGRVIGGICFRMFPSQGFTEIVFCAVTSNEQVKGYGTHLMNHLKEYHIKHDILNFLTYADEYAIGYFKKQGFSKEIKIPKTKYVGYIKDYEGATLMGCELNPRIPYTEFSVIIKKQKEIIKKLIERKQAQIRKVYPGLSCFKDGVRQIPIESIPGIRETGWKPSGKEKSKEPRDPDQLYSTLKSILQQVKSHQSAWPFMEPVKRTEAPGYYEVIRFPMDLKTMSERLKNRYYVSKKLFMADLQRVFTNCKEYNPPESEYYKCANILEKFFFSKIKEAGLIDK
Chain of Histone acetyltransferase KAT2A (Homo sapiens) (Q92830 2-837 limits assumed): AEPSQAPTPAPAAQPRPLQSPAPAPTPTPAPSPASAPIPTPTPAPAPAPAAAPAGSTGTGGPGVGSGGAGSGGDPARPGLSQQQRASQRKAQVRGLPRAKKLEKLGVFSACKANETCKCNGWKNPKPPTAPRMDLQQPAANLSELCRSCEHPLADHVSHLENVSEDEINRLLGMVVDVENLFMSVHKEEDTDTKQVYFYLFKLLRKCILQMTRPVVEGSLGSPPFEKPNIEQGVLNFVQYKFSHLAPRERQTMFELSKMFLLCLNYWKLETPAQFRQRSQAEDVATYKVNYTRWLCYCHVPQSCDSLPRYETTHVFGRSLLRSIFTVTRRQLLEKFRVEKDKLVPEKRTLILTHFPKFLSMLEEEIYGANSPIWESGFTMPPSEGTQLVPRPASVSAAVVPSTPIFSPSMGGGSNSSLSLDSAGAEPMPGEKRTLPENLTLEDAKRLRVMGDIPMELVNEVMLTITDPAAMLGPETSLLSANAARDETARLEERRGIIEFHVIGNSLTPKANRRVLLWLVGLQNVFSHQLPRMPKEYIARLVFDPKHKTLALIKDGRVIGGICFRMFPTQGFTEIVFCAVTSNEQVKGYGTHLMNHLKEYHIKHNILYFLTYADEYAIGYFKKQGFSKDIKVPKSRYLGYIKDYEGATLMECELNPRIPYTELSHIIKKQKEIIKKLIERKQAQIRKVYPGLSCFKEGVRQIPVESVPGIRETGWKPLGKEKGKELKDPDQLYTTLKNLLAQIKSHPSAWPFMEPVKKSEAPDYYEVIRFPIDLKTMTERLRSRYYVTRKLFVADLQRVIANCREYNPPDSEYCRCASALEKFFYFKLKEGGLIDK

For `Cc1cc(O)cc(C)c1C=C1C(=O)N(Cc2ccccc2)C(=O)N(Cc2ccccc2)C1=O`, the inhibition result in data set [1] and in data set [2] was “inactive” each time. Also, the inhibition result in [3] and in data set [5] was “tde” in each case. Further, the outcome in data set [4] and in [11] was Active. The outcome in data set [6] was inactive. Besides, the inhibition entry in data set [7] is “Active”. Besides, the inhibition constant Ki (as a rule, a measure of affinity in units of concentration, obtained from inhibition or displacement) amounted to 9.4 µM in [8] and 2 µM in data set [10]. In addition, the alphaKi is 6.8 µM in data set [8] and 5.7 µM in data set [10]. The IC50 – broadly, the concentration that gives 50% inhibition – was found to be 1.1 µM in data set [9] and 2.9 µM in data set [14]. Besides, the Stability result in data set [12] was “Stable”. Further, the Activity entry in data set [13] is “Non-toxic”. Moreover, the Papp – broadly, a coefficient for how fast a substance crosses the barrier – at 24 h in data set [15] is 1.9 ×10⁻⁶ cm/s.

These data come from ChEMBL document CHEMBL3421539, “A novel cell-permeable, selective, and noncompetitive inhibitor of KAT3 histone acetyltransferases from a combined molecular pruning/classical isosterism approach” (J Med Chem, 2015).
